According to US11807628B2, “Benzodiazepine derivatives and uses thereof” (priority 2018, dated 2023):
Non-standard residues stand in square brackets, D forms with d. Residues, ends and D or L forms follow the SMILES beside them. Dolaproine = CO[C@@H]([C@@H]1CCCN1)[C@@H](C)C(=O)O; Dil = CC[C@H](C)[C@H](NC)[C@@H](CC(=O)O)OC; NMeV = CN[C@H](C(=O)O)C(C)C

Assays:
A-498 = experiment: In vitro analysis of benzodiazepine dimer derivatives, MTT cell viability; type: cell-based; settings: MTT assay, 6 days incubation
Protocol: (§1) Example 85: In Vitro Analysis of Benzodiazepine Dimer Derivatives A-498, HCT-116, JIMT-1, MIA-PaCa-2 and HEK-293E were seeded into 24-well plates at 10×10^3 cells/1 mL medium/well. Calu-6, PC-3 and SK-OV-3 were seeded into 24-well plates at 15×10^3 cells/1 mL medium/well. NCI-N87 was seeded into 24-well plates at 25×10^3 cells/1 mL medium/well. The plates were incubated for 24 hours at 37° C. in a humidified 5% CO2-in-air atmosphere. Benzodiazepine dimer derivatives were dissolved initially in DMSO at a concentration of 10 mM. Serial dilutions were made in DMSO. The series of compound dilutions in DMSO were added to triplicate wells of 24-well plates at 5 μL per well. Three wells on each individual plate received 5 μL of DMSO without compound as controls. The final concentration of DMSO per well was 0.5%. The plates were incubated for 6 days at 37° C. in a humidified 5% CO2-in-air atmosphere. Cell viability was determined by the MTT assay and IC50 was generated using a sigmoidal dose-response nonlinear regression curve fit (GraphPad Software Inc.).

Calu-6 = experiment: as above; type: cell-based; settings: MTT assay, 6 days incubation
Protocol: as §1

HCT-116 = experiment: as above; type: cell-based; settings: MTT assay, 6 days incubation
Protocol: as §1

HEK-293E = experiment: as above; type: cell-based; settings: MTT assay, 6 days incubation
Protocol: as §1

JIMT-1 [1] = experiment: as above; type: cell-based; settings: MTT assay, 6 days incubation
Protocol: as §1

MIA-PaCa2 = experiment: as above; type: cell-based; settings: MTT assay, 6 days incubation
Protocol: as §1

NCI-N87 [2] = experiment: as above; type: cell-based; settings: Homo sapiens, NCI-N87, 144 h; MTT assay, 6 days incubation
Protocol: as §1

PC-3 = experiment: as above; type: cell-based; settings: MTT assay, 6 days incubation
Protocol: as §1

SK-OV3 [3] = experiment: as above; type: cell-based; settings: MTT assay, 6 days incubation
Protocol: as §1

JIMT-1 [4] = experiment: Cell cytotoxicity of antibody-drug conjugate; type: cell-based; settings: living cells quantified 96 hours later
Protocol: (§2) NCI-N87, JNMT-2, SK-BR3, and SK-V3 cancer cells were seeded in 96-well plates at a density of 2,000 to 8,000 cells per well in 100 μL of medium, and cultured for 24 hours. The four compounds obtained in Example 46 were treated by serial dilutions of 1:4 from 600 nM to 0.009 nM, and the antibody drug conjugate T-DM1 was treated by serial dilutions of 1:4 from 200 nM to 0.003 nM. Experiments were performed in a similar manner to Test Example 1 to quantify living cells 96 hours later, and results are shown in Table 2 below. Further, results of in vitro analysis of compound T-2-AB, T-3-AB, T-7-AB T-8-AB, T-9-AB, T-11-AB, T-12-AB, T-13-AB, T-14-AB, T-15-AB, T-16-AB, T-17-AB, T-Int-1-AB, T-Int-2-AB, T-Int-14-AB and mT-Int-8-AB were shown in FIG. 10, FIG. 11, FIG. 12, and Table 3.

NCI-N87 [5] = experiment: Cell cytotoxicity of antibody-drug conjugate; type: cell-based; settings: living cells quantified 96 hours later
Protocol: as §2

SK-BR3 = experiment: Cell cytotoxicity of antibody-drug conjugate; type: cell-based; settings: living cells quantified 96 hours later
Protocol: as §2

SK-OV3 [6] = experiment: Cell cytotoxicity of antibody-drug conjugate; type: cell-based; settings: living cells quantified 96 hours later
Protocol: as §2

NCI-N87 cells = experiment: In vivo efficacy, tumor xenograft studies in mice; settings: Male BALB/c nu/nu mice, tumors approximately 95 mm^3 at start, single i.v. injection day 0 (T-2-AB 0.5 or 2 mg/kg, T-DM1 2 mg/kg), 80 days observation
Protocol: In vivo efficacy of antibody-drug conjugates of the invention was measured by tumor xenograft studies in mice. Male BALB/c nu/nu were injected subcutaneously in the right flank with suspensions of 5×10^6 of NCI-N87 cells respectively in PBS. Mice were randomized into study groups when tumors reached approximately 95 mm^3. T-DM1 (2 mg/kg) and T-2-AB conjugates (0.5 mg/kg or 2 mg/kg) were given i.v. (single injection on treatment day 0). All treatment groups consisted of 6 to 10 animals per group, and tumor size was monitored twice weekly using caliper measurement. The tumor mass was calculated as volume=(width×width×length)/2.
T-7-AB was progressed in the same method except initial tumor size was 150 mm^3.

[7] = Homo sapiens, MIA PaCa-2, 144 h

In the case of `C=C1C[C@H]2C=Nc3cc(OCc4cc(O)cc(COc5cc6c(cc5OC)C(=O)N5CC(=C)C[C@H]5C=N6)c4)c(OC)cc3C(=O)N2C1` [Compound D-1, (Phenol)-PBD-Dimer], the IC50 (A-498; Homo sapiens, A498, 144 h) is reported as 414 pM, the IC50 (Calu-6; Homo sapiens, Calu-6, 144 h) is reported as 89 pM and the IC50 (HCT-116; Homo sapiens, HCT-116, 144 h) is reported as 0.109 nM. For the same molecule, the IC50 (HEK-293E; HEK293E, 144 h) was 0.216 nM, the IC50 (JIMT-1 [1]; Homo sapiens, JIMT-1, 144 h) was 102 pM and the IC50 (MIA-PaCa2; [7]) was 0.105 nM. The IC50 (NCI-N87 [2]) was 191 pM, the IC50 (PC-3; Homo sapiens, PC-3, 144 h) was 0.126 nM and the IC50 (SK-OV3 [3]; Homo sapiens, SK-OV-3, 144 h) was 0.175 nM.

`C=C1C[C@H]2C=Nc3cc(OCc4cncc(COc5cc6c(cc5OC)C(=O)N5CC(=C)C[C@H]5C=N6)c4)c(OC)cc3C(=O)N2C1` [Compound D-2, (Pyridine)-PBD-Dimer] was tested, and the IC50 (A-498; Homo sapiens, A498, 144 h) was 64 pM, the IC50 (Calu-6; Homo sapiens, Calu-6, 144 h) was 29 pM and the IC50 (HCT-116; Homo sapiens, HCT-116, 144 h) was 0.036 nM. The IC50 (HEK-293E; HEK293E, 144 h) was 0.079 nM, the IC50 (JIMT-1 [1]; Homo sapiens, JIMT-1, 144 h) was 34 pM and the IC50 (MIA-PaCa2; [7]) was 0.044 nM. It also gave an IC50 (NCI-N87 [2]) of 104 pM, an IC50 (PC-3; Homo sapiens, PC-3, 144 h) of 0.049 nM and an IC50 (SK-OV3 [3]; Homo sapiens, SK-OV-3, 144 h) of 0.074 nM.

`COc1cc2c(cc1OCc1cc(O)cc(COc3cc4c(cc3OC)C(=O)N3Cc5ccccc5C[C@H]3C=N4)c1)N=C[C@@H]1Cc3ccccc3CN1C2=O` [Compound D-3, (Phenol)-TBD-Dimer] gave an IC50 (A-498; Homo sapiens, A498, 144 h) of 139 pM, an IC50 (Calu-6; Homo sapiens, Calu-6, 144 h) of 6.2 pM and an IC50 (HCT-116; Homo sapiens, HCT-116, 144 h) of 0.0137 ± 0.0086 nM. For the same molecule, the IC50 (HEK-293E; HEK293E, 144 h) was 0.0114 ± 0.0026 nM, the IC50 (JIMT-1 [1]; Homo sapiens, JIMT-1, 144 h) was 31 ± 15 pM and the IC50 (MIA-PaCa2; [7]) was 0.0106 ± 0.0046 nM. For the same molecule, the IC50 (NCI-N87 [2]) was 32.2 ± 21.3 pM, the IC50 (PC-3; Homo sapiens, PC-3, 144 h) was 0.0326 ± 0.0103 nM and the IC50 (SK-OV3 [3]; Homo sapiens, SK-OV-3, 144 h) was 0.0596 ± 0.0182 nM.

`COc1cc2c(cc1OCc1cncc(COc3cc4c(cc3OC)C(=O)N3Cc5ccccc5C[C@H]3C=N4)c1)N=C[C@@H]1Cc3ccccc3CN1C2=O` [Compound D-4, (Pyridine)-TBD-Dimer] gave an IC50 (JIMT-1 [1]; Homo sapiens, JIMT-1, 144 h) of 1.7 ± 0.6 pM and an IC50 (NCI-N87 [2]) of 3.8 ± 2.4 pM.

With `COc1cc2c(cc1OCc1cc(COc3cc4c(cc3OC)C(=O)N3Cc5ccccc5C[C@H]3C=N4)cc(CN(C)C)c1)N=C[C@@H]1Cc3ccccc3CN1C2=O` [Compound D-5, (N,N-dimethylbenzyl)-TBD-Dimer] the IC50 (A-498; Homo sapiens, A498, 144 h) was 2.9 pM, the IC50 (Calu-6; Homo sapiens, Calu-6, 144 h) was 1.4 pM and the IC50 (HCT-116; Homo sapiens, HCT-116, 144 h) was 0.0014 ± 0.0006 nM. It also gave an IC50 (HEK-293E; HEK293E, 144 h) of 0.0022 ± 0.0011 nM, an IC50 (JIMT-1 [1]; Homo sapiens, JIMT-1, 144 h) of 1.7 ± 0.5 pM and an IC50 (MIA-PaCa2; [7]) of 0.0019 ± 0.0016 nM. For the same molecule, the IC50 (PC-3; Homo sapiens, PC-3, 144 h) was 0.0044 ± 0.0021 nM and the IC50 (SK-OV3 [3]; Homo sapiens, SK-OV-3, 144 h) was 0.0109 ± 0.0027 nM.

`COc1cc2c(cc1OCCN(CCOc1cc3c(cc1OC)C(=O)N1Cc4ccccc4C[C@H]1C=N3)c1ccncc1)N=C[C@@H]1Cc3ccccc3CN1C2=O` [Compound D-6, (N-Pyridine)-TBD-Dimer] showed an IC50 (JIMT-1 [1]; Homo sapiens, JIMT-1, 144 h) of 2980 pM and an IC50 (NCI-N87 [2]) of 4110 pM.

`COc1cc2c(cc1OCc1cc(O)cc(COc3cc4c(cc3OC)C(=O)N3c5ccccc5C[C@H]3C=N4)c1)N=C[C@@H]1Cc3ccccc3N1C2=O` [Compound D-7, (Phenol)-IBD-Dimer] showed an IC50 (NCI-N87 [2]) of 118 ± 9 pM.

For `COc1cc2c(cc1OCc1cc(COc3cc4c(cc3OC)C(=O)N3c5ccccc5C[C@H]3C=N4)cc(CN(C)C)c1)N=C[C@@H]1Cc3ccccc3N1C2=O` [Compound D-8, (N,N-dimethylbenzyl)-IBD-Dimer], the IC50 (NCI-N87 [2]) was 62 ± 2 pM.

In the case of `COc1cc2c(cc1OCCN(C)CCOc1cc3c(cc1OC)C(=O)N1Cc4ccccc4C[C@H]1C=N3)N=C[C@@H]1Cc3ccccc3CN1C2=O` [Compound D-9], the IC50 (NCI-N87 [2]) is reported as 184 ± 36 pM.

`C=C1C[C@H]2C=Nc3cc(OCc4cc(COc5cc6c(cc5OC)C(=O)N5CC(=C)C[C@H]5C=N6)cc(CN(C)C)c4)c(OC)cc3C(=O)N2C1` [Compound D-10] showed an IC50 (NCI-N87 [2]) of 663 ± 116 pM.

`COc1cc2c(cc1OCc1cc(O)cc(COc3cc4c(cc3OC)C(=O)N3C=C(c5ccccc5)C[C@H]3C=N4)c1)N=C[C@@H]1CC(c3ccccc3)=CN1C2=O` [Compound D-11] showed an IC50 (NCI-N87 [2]) of 173 ± 34 pM.

Work on `COc1cc2c(cc1OCc1cc(COc3cc4c(cc3OC)C(=O)N3Cc5cc(O)ccc5C[C@H]3C=N4)cc(CN(C)C)c1)N=C[C@@H]1Cc3ccccc3CN1C2=O` [Compound D-12] yielded an IC50 (NCI-N87 [2]) of 2030 pM.

With `COc1cc2c(cc1OCCCCCOc1cc3c(cc1OC)C(=O)N1Cc4cc(O)ccc4C[C@H]1C=N3)C=N[C@@H]1Cc3ccccc3CN1C2=O` [Compound D-13] the IC50 (NCI-N87 [2]) was 2030 ± 1220 pM.

Work on `CC[C@H](C)[C@@H]([C@@H](CC(=O)N1CCC[C@H]1[C@H](OC)[C@@H](C)C(=O)N[C@@H](Cc1ccccc1)C(=O)OC)OC)N(C)C(=O)[C@@H](NC(=O)[C@@H](NC)C(C)C)C(C)C` [MMAF-OMe, reference compound] (H-[NMeV]V[Dil][Dolaproine]F-OMe) yielded an IC50 (A-498) of 233 pM, an IC50 (Calu-6) of 162 pM and an IC50 (HCT-116) of 0.392 nM. The IC50 (HEK-293E) was 0.97 nM, the IC50 (JIMT-1 [1]) was 161 pM and the IC50 (MIA-PaCa2) was 0.852 nM. The IC50 (PC-3) was 0.212 nM and the IC50 (SK-OV3 [3]) was 0.244 nM.

For `COc1cc2c(cc1OCc1cccc(COc3cc4c(cc3OC)C(=O)N3Cc5ccccc5C[C@H]3C=N4)c1)N=C[C@@H]1Cc3ccccc3CN1C2=O` [Ref-1, reference compound], the IC50 (JIMT-1 [1]; Homo sapiens, JIMT-1, 144 h) was 5.4 ± 1.6 pM and the IC50 (NCI-N87 [2]) was 3.5 ± 2.8 pM.

For T-DM1, the IC50 (JIMT-1 [4]) was 3.15 ± 1.76 nM, the IC50 (NCI-N87 [5]) was 0.234 ± 0.096 nM and the IC50 (SK-BR3) was 0.037 ± 0.012 nM. The IC50 (SK-OV3 [6]) was 0.109 ± 0.004 nM and the “Tumor size in NCI-N87 xenograft” value (NCI-N87 cells) was “less active than the conjugates of the invention”.
